# “Also recorded” adds a separate entry of the source.
# Legend:
# [1] = test system: α-Glucosidase (E.C.3.2.1.20); assay: α-Glucosidase enzyme inhibition assay; format: biochemical; settings: for Active (activity against alpha-glucosidase enzyme): Table 1; for IC50: pH 6.9, 37° C., 0.7 mM PNP-G substrate, NA = inactive compounds
# Method: α-Glucosidase Enzyme Inhibition Assay
# α-Glucosidase (E.C.3.2.1.20) enzyme inhibition assay has been performed according to the slightly modified method of Matsui et al. α-Glucosidase (E.C.3.2.1.20) from Saccharomyces sp. was purchased from Wako Pure Chemical Industries Ltd. (Wako 076-02841). The inhibition has been measured spectrophotometrically at pH 6.9 and at 37° C. using 0.7 mM p-nitrophenyl α-D glucopyranoside (PNP-G) as a substrate and 250 m units/mL enzyme in 50 mM sodium phosphate buffer containing 100 mM NaCl. […] The increment in absorption at 400 nm due to the hydrolysis of PNP-G by α-glucosidase was monitored continuously with the spectrophotometer (Molecular Devices, USA). The concentrations of the test compounds, which inhibited the hydrolysis of PNP-G by α-glucosidase by 50% (IC50), were determined by monitoring the effect of increasing the concentration of these compounds on the inhibition values. The IC50 values were then calculated using EZ-Fit enzyme kinetics program (Perrella Scientific Inc., Amherst, Mass., U.S.A.).
# enzyme tyrosinas = biological target: T1, enzyme tyrosinas (Homo sapiens, UniProt P14679); assay: inhibitory activity against enzyme tyrosinas; format: biochemical
# T1 sequence (P14679 19-529): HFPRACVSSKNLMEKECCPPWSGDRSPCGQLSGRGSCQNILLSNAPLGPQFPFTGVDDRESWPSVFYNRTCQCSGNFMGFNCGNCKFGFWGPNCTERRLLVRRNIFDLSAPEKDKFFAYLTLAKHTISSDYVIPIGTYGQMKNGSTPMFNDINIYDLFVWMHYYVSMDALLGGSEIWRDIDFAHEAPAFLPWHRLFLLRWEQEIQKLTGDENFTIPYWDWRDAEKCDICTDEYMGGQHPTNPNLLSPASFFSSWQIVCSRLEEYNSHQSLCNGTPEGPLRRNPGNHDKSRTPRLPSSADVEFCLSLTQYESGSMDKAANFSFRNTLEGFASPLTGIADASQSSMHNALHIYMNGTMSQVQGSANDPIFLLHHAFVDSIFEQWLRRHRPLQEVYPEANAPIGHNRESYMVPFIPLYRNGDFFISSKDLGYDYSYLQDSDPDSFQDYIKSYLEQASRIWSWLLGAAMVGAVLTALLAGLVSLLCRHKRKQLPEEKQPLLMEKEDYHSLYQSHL
Compound,Active (activity against alpha-glucosidase enzyme) [1],inhibitory activity against α-Glucosidase enzyme (in words) [1],IC50 [1],inhibitory activity against enzyme tyrosinas (in words) (enzyme tyrosinas),melting point
"C#C[C@]1(O)CC[C@H]2[C@@H]3[C@H](C)CC4=C(CCC(=O)C4)[C@H]3CC[C@@]21C [Compound 1, Tibolone]",No,–,–,–,–
"C#C[C@]1(O)CC[C@H]2[C@@H]3[C@H](C)CC4=C(CC[C@H](O)C4)[C@H]3CC[C@@]21C [Compound 2, 3β-hydroxytibolone]",No,–,–,–,–
"C#C[C@]1(O)CC[C@H]2[C@@H]3[C@H](C)CC4=C(CC[C@@H](O)C4)[C@H]3CC[C@@]21C [Compound 3, 3α-hydroxytibolone]",No,–,–,–,–
"C#CC1(O)CCC2C3C(C)CC4=CC(=O)C=CC4C3CCC21C (stereo not drawn) [Compound 7, 7α-methyl-17α-ethynl-17β-hydroxy-19-norandrost-1,4-dien-3-one]",Yes,significant activity,227 ± 0.02 µM,–,–
"C#CC1(O)CCC2C3C(C)CC4=CC(=O)CCC4(O)C3CCC21C (stereo not drawn) [Compound 8, 7α-methyl-17α-ethynl-10β,17β-dihydroxy-19-norandrost-4-en-3-one]",No,pronounced inhibitory activities,877 ± 0.03 µM,–,–
"C#CC1(O)CC(O)C2C3C(C)CC4=C(CCC(=O)C4)C3C(O)CC21C (stereo not drawn) [Compound 9, 7α-methyl-17α-ethynl-11α,15β,17β-trihydroxy-19-norandrost-5(10)-en-3-one]",No,–,–,pronounced inhibitory activity,–
"C#CC1(O)CC(O)C2C3C(C)C=C4CC(=O)CCC4C3C(O)CC21C (stereo not drawn) [Compound 10, 7α-methyl-17α-ethynl-11α,15β,17β-trihydroxy-19-norandrost-5-en-3-one]",No,–,–,pronounced inhibitory activity,–
"C#CC1(O)CCC2C3C(C)C=C4CC(=O)CCC4C3CCC21C (stereo not drawn) [Compound 11, 7α-methyl-17α-ethynl-17β-hydroxy-19-norandrost-5-en-3-one]",No,–,–,–,–
"C#CC1(O)CCC2C3C(C)C(O)C4=CC(=O)CCC4C3CCC21C (stereo not drawn) [Compound 12, 6β-Hydroxy-Δ^4-tibolone]",Yes,pronounced inhibitory activities; also recorded: pronounced inhibitory activity,653 ± 0.02 µM,–,189 to 193 °C
"C#CC1(O)CCC2C3C(C)C(O)C4=CC(=O)CCC4C3CCC21C (stereo not drawn) [Compound 13, 6α-Hydroxy-Δ^4-tibolone]",Yes,pronounced inhibitory activities; also recorded: pronounced inhibitory activity,< 70 µM,–,187 to 190 °C
"C#CC1(O)CC(O)C2C3C(C)CC4=CC(=O)CCC4C3CCC21C (stereo not drawn) [Compound 14, 15α-Hydroxy-Δ^4-tibolone]",Yes,–,< 70 µM,–,–
"C#CC1(O)CCC2C3C(C)C(O)C4=CC(=O)C=CC4C3CCC21C (stereo not drawn) [Compound 15, 7α-methyl-17α-ethynl-6α,17β-dihydroxy-19-norandrost-1,4-dien-3-one]",Yes,significant activity; also recorded: pronounced inhibitory activity,340 ± 0.02 µM,–,–
"C#C[C@]1(O)CC[C@H]2[C@@H]3[C@H](C)[C@@H](OC)C4=CC(=O)CC[C@@H]4[C@H]3CC[C@@]21C [Compound 16, 7α-methyl-17α-ethynl-6β-methoxy-17β-hydroxy-19-norandrost-4-en-3-one]",No,–,–,–,–

# Source: US8148556B2, “Method of producing tibolone metabolites by fermentation with Rhizopus stolonifer” (priority 2007, dated 2012)
